Experimental data: patent US11021444B2, “Antiviral compounds” (priority 2013, dated 2021)
pEC50, pIC50: −log10 of the molar value. Where two headings read alike, the source gives them in different places.

Key:
recombinant RSV complex = recombinant RSV complex (Human respiratory syncytial virus A, UniProt P28887); assay: RSV Polymerase Inhibition Assay; type: biochemical
Protocol: Standard RSV polymerase assays were conducted in the presence of 10 nM recombinant RSV complex in a reaction buffer containing Tris-HCl pH7.5, 6 mM MgCl2, and other additives and substrates including RNA oligonucleotides and radionucleotides. Standard reactions were incubated in 96-well plate format for 2 h at 30° C., in the presence of increasing concentration of inhibitor. The reaction was stopped with 90 μL of 0.1M EDTA, and the reaction product was transferred to a “reading” 96-well plate. After washing of the plate, radiolabeled RNA products were detected according to standard procedures with a Trilux Topcount scintillation counter.

[1] = Cytotoxicity Determination (CCK-8, without addition of virus); type: cell-based; details: human, 50% cytotoxicity concentration (CC50)
Protocol: (§1) CPE reduction assays are performed as described by Sidwell and Huffman et al., Appl. Microbiol. (1971) 22(5):797-801 with slight modifications. HEp-2 cells (ATCC #, CCL-23) are seeded at a density of 1,500 cells/30 μl/well into the 384-well cell plate(s) (Corning #3701) one day prior to the assay. Compounds are added into 384-well cell plates by Labcyte POD 810 Plate Assembler system. Each of the test compounds is provided to duplicate wells of a 384-well cell plate at final concentrations starting from 100 μM or 1 μM using 1/3 stepwise dilutions for 9 points. Quick-thaw Respiratory Syncytial Virus (RSV) long strain (ATCC #VR-26) stock in a 37° C. water bath. Place on ice until ready to use. Viruses are diluted to the concentration of 100 TCID50/30 μL with medium and 30 μl diluted RSV are added into related wells of 384-well cell plates. For each plate, sixteen wells are set aside as uninfected, untreated cell controls (CC), and nine wells per test plate receive virus only as a control for virus replication (VC). The final DMSO concentration of all wells is 1%. Place the plates at 37° C., 5% CO2 for 5 days.
In order to determine the compound cytotoxicity, in parallel, each of the compounds is applied to duplicate wells in a 384-well cell plate at serial final concentrations starting from 100 μM using 1/2 stepwise dilutions for 7 points without addition of virus. Incubate the cells at 37° C., 5% CO2 for 5 days. Add 6 μL CCK-8 into each well and incubate in a CO2 incubator at 37° C. for 3-4 hours.

[2] = tested on: Respiratory Syncytial Virus (RSV) long strain; assay: microbe, parasite or virus in culture; type: cell-based; details: human respiratory syncytial virus, Tables A and B list compounds by EC50 band
Protocol: as §1
After 5 days incubation, observe the CPE of cells in all wells. […] Six μl of cell counting kit-8 reagent (CCK-8, Dojindo Molecular Technologies Inc., CK04-20) are added to each well, which allows colorimetric assays to determine the number of viable cells through the dehydrogenase activity detection. After 3-4 hour incubation, the absorbance of each well is measured with a spectrophotometric plate reader at 450 nm wavelength, using a 630 nm filter as background according to manufacturer's instruction.

[3] = HEp-2, 120 h, read-out: 50% effective concentration (EC50), HEp-2 cells infected with RSV long strain, 5 days, CCK-8 readout
[4] = 120 h, read-out: 50% effective concentration (EC50), HEp-2 cells infected with RSV long strain, 5 days, CCK-8 readout

recombinant RSV complex, sequence (P28887 whole entry): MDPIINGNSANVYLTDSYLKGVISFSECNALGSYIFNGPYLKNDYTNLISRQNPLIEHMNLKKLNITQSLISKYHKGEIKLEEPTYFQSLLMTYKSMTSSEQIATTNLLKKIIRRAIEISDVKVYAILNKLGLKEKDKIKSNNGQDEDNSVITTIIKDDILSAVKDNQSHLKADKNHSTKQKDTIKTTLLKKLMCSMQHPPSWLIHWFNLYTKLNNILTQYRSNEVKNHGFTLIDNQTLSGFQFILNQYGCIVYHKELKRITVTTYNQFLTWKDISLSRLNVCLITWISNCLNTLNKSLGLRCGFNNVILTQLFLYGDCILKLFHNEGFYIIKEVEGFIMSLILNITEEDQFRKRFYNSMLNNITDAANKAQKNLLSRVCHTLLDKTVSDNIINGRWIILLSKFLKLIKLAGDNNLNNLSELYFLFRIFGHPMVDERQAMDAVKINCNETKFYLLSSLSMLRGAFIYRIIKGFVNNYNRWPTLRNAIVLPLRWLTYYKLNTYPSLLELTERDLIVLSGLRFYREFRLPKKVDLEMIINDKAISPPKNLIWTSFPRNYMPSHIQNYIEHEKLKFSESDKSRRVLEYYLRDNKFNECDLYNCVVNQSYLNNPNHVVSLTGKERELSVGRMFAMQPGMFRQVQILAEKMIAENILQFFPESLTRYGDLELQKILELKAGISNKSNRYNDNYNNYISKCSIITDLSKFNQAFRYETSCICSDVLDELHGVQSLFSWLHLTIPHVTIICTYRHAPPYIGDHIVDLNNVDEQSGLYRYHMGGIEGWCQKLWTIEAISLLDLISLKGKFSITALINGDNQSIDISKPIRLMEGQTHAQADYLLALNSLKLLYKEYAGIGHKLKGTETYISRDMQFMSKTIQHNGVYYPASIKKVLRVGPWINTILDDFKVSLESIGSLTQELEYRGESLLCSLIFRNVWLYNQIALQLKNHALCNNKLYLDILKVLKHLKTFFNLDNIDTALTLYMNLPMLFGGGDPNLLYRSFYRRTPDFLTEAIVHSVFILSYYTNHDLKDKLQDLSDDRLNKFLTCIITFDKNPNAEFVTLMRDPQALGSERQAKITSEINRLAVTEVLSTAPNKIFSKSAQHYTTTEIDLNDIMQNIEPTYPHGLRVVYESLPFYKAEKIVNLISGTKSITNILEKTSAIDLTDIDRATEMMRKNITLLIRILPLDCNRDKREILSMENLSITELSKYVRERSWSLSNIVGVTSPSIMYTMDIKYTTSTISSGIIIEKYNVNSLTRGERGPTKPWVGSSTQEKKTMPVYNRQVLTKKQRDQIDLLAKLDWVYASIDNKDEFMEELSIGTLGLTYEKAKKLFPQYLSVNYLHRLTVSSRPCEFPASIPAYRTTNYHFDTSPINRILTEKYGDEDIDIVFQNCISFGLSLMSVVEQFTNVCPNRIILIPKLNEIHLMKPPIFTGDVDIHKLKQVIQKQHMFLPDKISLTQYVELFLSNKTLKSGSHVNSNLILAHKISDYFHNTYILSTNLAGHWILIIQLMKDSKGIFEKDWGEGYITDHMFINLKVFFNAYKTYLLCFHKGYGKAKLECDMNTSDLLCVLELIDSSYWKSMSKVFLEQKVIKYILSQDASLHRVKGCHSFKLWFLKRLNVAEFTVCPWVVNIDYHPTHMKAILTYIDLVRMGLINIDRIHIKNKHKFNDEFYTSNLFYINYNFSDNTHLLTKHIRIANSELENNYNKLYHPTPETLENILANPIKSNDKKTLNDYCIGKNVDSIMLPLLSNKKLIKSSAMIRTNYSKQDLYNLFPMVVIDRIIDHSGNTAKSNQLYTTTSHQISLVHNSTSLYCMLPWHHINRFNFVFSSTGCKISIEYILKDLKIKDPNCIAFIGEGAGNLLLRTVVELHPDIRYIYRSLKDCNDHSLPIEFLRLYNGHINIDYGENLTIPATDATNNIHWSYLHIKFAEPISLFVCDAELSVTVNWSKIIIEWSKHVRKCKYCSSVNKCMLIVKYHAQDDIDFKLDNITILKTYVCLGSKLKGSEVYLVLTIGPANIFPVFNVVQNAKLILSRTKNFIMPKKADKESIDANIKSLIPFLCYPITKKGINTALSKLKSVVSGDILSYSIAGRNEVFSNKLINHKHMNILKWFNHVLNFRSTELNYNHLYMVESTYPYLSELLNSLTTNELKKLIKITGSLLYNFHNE
recombinant RSV complex, sequence (P03421 whole entry, further chain): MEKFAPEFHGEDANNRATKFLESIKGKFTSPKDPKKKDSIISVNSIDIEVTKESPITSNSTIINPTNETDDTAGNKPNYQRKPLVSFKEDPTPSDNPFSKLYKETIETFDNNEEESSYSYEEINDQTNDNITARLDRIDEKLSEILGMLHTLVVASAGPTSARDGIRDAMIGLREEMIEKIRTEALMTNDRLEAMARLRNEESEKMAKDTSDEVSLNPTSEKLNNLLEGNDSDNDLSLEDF

Structure (SMILES) | pIC50 (recombinant RSV complex) | CC50 at 5 days [1] | pEC50 [2, 3] | pEC50 [2, 4]
COc1cc(C(=O)NCC(O)c2ccc3c(n2)-c2c(sc4c(F)cccc24)CO3)ccc1OCCO (centres unmarked) [Compound 161] | > 4.00 | 10 to 100 µM | 4.30 to 6.00 | 
COc1cc(C(=O)NC[C@](O)(c2cc3c(c(-c4ccc(F)cc4)n2)OCC3(N)CO)C(F)(F)F)ccc1OC1CC1 (some centres unmarked) [Compound 654] | > 6.00 | 10 to 100 µM | > 6.00 | 
COc1cc(C(=O)NCC(O)(c2ccc(OC)c(-c3ccc(F)c(Cl)c3)n2)C2CC2)ccc1OCC(N)=O (centres unmarked) [Compound 429] |  | 10 to 100 µM |  | > 6.00
COc1cc(C(=O)NC[C@@](O)(c2cc(C(C)(C)N)cc(-c3ccc(F)cc3)n2)C(F)(F)F)ccc1OC1CC1 [Compound 495] | > 6.00 | 10 to 100 µM | > 6.00 | 
COc1cc(C(=O)NC[C@@](O)(c2cc3c(c(-c4ccc(F)cc4)n2)OCC3(C)CN)C(F)(F)F)ccc1OCCO (some centres unmarked) [Compound 633a] | > 6.00 | 10 to 100 µM | 4.30 to 6.00 | 
COc1cc(C(=O)NCC(O)(c2ccc(OC)c(-c3ccc(F)c(Cl)c3)n2)C(F)(F)F)ccc1OC1CCCC1=O (centres unmarked) [Compound 257] | > 6.00 | 10 to 100 µM | > 6.00 | 
COc1cc(C(=O)NCC(=O)c2cc3c(c(-c4c[nH]c5c(F)cccc45)n2)OCC3)ccc1OCCF [Compound 287] | > 6.00 | > 100 µM | > 6.00 | 
COc1cc(-c2csc3c(F)cccc23)nc(C(O)CNC(=O)c2ccc(OC)c(OC)c2)c1 (centres unmarked) [Compound 100] |  | 10 to 100 µM |  | 4.30 to 6.00
COc1cc(C(=O)NCC(C)(O)c2cc3c(c(-c4ccc(F)c(Cl)c4)n2)OCC3(C)O)ccc1OC1CC1 (centres unmarked) [Compound 475] | > 6.00 | 10 to 100 µM | > 6.00 | 
COc1ccc(C(=O)NCC(O)(c2ccc(OC)c(-c3ccc(F)c(Cl)c3)n2)C(F)(F)F)cc1OC (centres unmarked) [Compound 337] |  | 10 to 100 µM | 4.30 to 6.00 | 
COc1ccc(C(=O)NCC(O)c2csc(-c3csc4c(F)cccc34)n2)cc1OC (centres unmarked) [Compound 108] |  | > 100 µM |  | 4.30 to 6.00
COc1cc(-c2csc3c(F)cccc23)nc(C(O)CNC(=O)c2ccc(OC)c(OC)c2)n1 (centres unmarked) [Compound 131] |  | 10 to 100 µM |  | 4.30 to 6.00
COc1ccc(C(=O)NCC(O)c2nc(-c3csc4c(F)cccc34)cs2)cc1OC (centres unmarked) [Compound 134] |  | 10 to 100 µM |  | 4.30 to 6.00
COc1ccc(C(=O)NCC(O)c2nc(-c3csc4c(F)cccc34)n3ccccc23)cc1OC (centres unmarked) [Compound 113] |  | 10 to 100 µM |  | 4.30 to 6.00
CNC(=O)COc1ccc(C(=O)NCC(C)(O)c2cccc(-c3ccc(F)c(Cl)c3)n2)cc1OC (centres unmarked) [Compound 121] |  | > 100 µM |  | 4.30 to 6.00
COc1ccc(C(=O)NCC(O)c2nc(-c3csc4c(F)cccc34)cn2C)cc1OC (centres unmarked) [Compound 133] |  | 10 to 100 µM |  | 4.30 to 6.00
COc1cc(C(=O)NCC(=O)c2cc3c(c(-c4ccc(F)c(Cl)c4)n2)OCC3(C)C)cc2c(C)ccnc12 [Compound 229] |  | > 100 µM |  | 4.30 to 6.00
COc1ccc(C(=O)NCC(O)c2nc(-c3csc4c(F)cccc34)c[nH]2)cc1OC (centres unmarked) [Compound 132] |  | 10 to 100 µM |  | 4.30 to 6.00
COc1cc(C(O)CNC(=O)c2ccc(OC)c(OC)c2)nc(-c2csc3c(F)cccc23)n1 (centres unmarked) [Compound 112] |  | 10 to 100 µM |  | 4.30 to 6.00
COc1cc(C(=O)NCC(O)(CN(CCN)CC(=O)O)c2ccc(OC)c(-c3ccc(F)c(Cl)c3)n2)ccc1OCCO (centres unmarked) [Compound 183] | > 6.00 | > 100 µM |  | 
